In doi:10.1101/2021.04.08.439011v1 (biorxiv, 2021):
Like-named read-outs stand apart in the source and are kept apart here.

Experiments:
ADCK3 = ADCK3 (Homo sapiens, UniProt Q8NI60); conditions: 0.1 µM; binder
BMPR1B = BMPR1B (Homo sapiens, UniProt O00238); conditions: 0.1 µM; binder
CASK = CASK (Homo sapiens, UniProt O14936); conditions: 0.1 µM; binder
CLK2 = CLK2 (Homo sapiens, UniProt P49760); conditions: 0.1 µM; binder
CSF1R = CSF1R (Homo sapiens, UniProt P07333); conditions: 0.1 µM, binder
Sequence of CSF1R (P07333 whole entry): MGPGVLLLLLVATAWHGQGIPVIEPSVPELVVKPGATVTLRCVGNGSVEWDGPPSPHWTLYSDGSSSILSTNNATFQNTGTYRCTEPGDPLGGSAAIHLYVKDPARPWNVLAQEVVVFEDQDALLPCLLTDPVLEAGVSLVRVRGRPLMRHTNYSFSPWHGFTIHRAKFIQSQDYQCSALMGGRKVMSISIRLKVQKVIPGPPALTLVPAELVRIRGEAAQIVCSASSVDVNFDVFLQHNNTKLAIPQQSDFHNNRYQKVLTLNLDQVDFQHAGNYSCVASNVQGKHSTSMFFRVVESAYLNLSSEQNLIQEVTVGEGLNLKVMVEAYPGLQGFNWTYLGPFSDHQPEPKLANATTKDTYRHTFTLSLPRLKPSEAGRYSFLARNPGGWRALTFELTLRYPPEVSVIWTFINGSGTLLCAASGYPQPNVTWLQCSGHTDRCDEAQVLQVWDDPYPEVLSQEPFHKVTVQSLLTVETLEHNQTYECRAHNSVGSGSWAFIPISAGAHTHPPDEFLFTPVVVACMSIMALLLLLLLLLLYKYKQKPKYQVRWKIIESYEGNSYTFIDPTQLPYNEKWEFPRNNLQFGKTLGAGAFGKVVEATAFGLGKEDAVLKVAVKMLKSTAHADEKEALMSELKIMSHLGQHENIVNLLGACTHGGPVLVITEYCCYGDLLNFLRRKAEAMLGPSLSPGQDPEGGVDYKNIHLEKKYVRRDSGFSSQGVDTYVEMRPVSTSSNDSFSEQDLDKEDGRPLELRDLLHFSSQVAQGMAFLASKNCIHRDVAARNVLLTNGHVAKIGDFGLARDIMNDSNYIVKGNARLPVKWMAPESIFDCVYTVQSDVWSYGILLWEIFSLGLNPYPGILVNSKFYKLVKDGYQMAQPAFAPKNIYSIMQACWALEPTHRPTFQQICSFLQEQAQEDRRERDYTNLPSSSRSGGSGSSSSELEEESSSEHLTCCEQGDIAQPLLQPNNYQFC

CSNK1G2 = CSNK1G2 (Homo sapiens, UniProt P78368); conditions: 0.1 µM; binder
DAPK2 = DAPK2 (Homo sapiens, UniProt Q9UIK4); conditions: 0.1 µM; binder
DCAMKL2 = DCAMKL2 (Homo sapiens, UniProt Q8N568); conditions: 0.1 µM; binder
DSTYK = DSTYK (Homo sapiens, UniProt Q6XUX3); conditions: 0.1 µM; binder
EGFR(G719S) = EGFR(G719S) (Homo sapiens, UniProt P00533, G719S); conditions: 0.1 µM; binder
EGFR(L858R) = EGFR(L858R) (Homo sapiens, UniProt P00533, L858R); conditions: 0.1 µM; binder
EGFR(L861Q) = EGFR(L861Q) (Homo sapiens, UniProt P00533, L861Q); conditions: 0.1 µM; binder
ERK1 = ERK1 (Homo sapiens, UniProt P27361); conditions: 0.1 µM; binder
FLT3(K663Q) = FLT3(K663Q) (Homo sapiens, UniProt P36888, K663Q); conditions: 0.1 µM; binder
HIPK2 = HIPK2 (Homo sapiens, UniProt Q9H2X6); conditions: 0.1 µM; binder
KIT(D816V) = KIT(D816V) (Homo sapiens, UniProt P10721, D816V); conditions: 0.1 µM; binder
LIMK1 = LIMK1 (Homo sapiens, UniProt P53667); conditions: 0.1 µM; binder
LOK = LOK (Homo sapiens, UniProt O94804); conditions: 0.1 µM; binder
Sequence of LOK (O94804 whole entry): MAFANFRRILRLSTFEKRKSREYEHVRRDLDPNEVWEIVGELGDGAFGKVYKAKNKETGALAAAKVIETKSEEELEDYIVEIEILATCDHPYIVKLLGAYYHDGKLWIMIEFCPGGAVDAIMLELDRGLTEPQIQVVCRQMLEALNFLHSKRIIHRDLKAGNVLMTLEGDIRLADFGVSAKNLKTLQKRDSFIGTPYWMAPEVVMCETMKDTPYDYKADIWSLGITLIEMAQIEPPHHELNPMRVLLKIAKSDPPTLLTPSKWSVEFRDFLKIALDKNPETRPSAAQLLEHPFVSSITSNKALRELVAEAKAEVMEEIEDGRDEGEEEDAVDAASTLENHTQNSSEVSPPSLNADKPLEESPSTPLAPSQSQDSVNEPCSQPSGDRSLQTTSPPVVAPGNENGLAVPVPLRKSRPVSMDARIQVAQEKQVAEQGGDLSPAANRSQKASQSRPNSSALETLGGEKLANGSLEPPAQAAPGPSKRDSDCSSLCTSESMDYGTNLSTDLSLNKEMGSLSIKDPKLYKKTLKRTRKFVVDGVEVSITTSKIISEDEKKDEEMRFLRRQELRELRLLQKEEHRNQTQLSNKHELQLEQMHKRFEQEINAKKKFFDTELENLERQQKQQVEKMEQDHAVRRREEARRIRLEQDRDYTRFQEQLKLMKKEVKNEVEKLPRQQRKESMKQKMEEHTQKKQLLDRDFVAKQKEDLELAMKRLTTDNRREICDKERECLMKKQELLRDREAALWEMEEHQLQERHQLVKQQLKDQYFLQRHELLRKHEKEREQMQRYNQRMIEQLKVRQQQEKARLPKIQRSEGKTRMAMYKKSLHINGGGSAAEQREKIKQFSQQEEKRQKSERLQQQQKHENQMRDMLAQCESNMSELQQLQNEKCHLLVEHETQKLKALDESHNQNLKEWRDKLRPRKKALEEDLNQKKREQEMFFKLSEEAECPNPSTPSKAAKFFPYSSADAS

LZK = LZK (Homo sapiens, UniProt O43283); conditions: 0.1 µM; binder
MAP4K4 = MAP4K4 (Homo sapiens, UniProt O95819); conditions: 0.1 µM; binder
MEK3 = MEK3 (Homo sapiens, UniProt P46734); conditions: 0.1 µM; binder
Sequence of MEK3 (P46734 whole entry): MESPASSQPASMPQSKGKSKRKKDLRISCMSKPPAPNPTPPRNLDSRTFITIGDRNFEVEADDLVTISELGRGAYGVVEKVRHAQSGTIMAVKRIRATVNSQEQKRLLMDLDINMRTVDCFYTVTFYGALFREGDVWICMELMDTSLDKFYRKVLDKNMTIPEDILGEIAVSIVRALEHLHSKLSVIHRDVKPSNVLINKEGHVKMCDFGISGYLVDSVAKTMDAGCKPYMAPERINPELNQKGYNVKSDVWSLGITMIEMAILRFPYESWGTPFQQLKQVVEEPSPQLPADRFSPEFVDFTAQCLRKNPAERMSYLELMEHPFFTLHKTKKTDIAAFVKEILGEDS

MKNK2 = MKNK2 (Homo sapiens, UniProt Q9HBH9); conditions: 0.1 µM; binder
NEK11 = NEK11 (Homo sapiens, UniProt Q8NG66); conditions: 0.1 µM; binder
NEK4 = NEK4 (Homo sapiens, UniProt P51957); conditions: 0.1 µM; binder
PFTAIRE2 = PFTAIRE2 (Homo sapiens, UniProt Q96Q40); conditions: 0.1 µM; binder
PHKG2 = PHKG2 (Homo sapiens, UniProt P15735); conditions: 0.1 µM; binder
PIK3CB = PIK3CB (Homo sapiens, UniProt P42338); conditions: 0.1 µM; binder
Sequence of PIK3CB (P42338 whole entry): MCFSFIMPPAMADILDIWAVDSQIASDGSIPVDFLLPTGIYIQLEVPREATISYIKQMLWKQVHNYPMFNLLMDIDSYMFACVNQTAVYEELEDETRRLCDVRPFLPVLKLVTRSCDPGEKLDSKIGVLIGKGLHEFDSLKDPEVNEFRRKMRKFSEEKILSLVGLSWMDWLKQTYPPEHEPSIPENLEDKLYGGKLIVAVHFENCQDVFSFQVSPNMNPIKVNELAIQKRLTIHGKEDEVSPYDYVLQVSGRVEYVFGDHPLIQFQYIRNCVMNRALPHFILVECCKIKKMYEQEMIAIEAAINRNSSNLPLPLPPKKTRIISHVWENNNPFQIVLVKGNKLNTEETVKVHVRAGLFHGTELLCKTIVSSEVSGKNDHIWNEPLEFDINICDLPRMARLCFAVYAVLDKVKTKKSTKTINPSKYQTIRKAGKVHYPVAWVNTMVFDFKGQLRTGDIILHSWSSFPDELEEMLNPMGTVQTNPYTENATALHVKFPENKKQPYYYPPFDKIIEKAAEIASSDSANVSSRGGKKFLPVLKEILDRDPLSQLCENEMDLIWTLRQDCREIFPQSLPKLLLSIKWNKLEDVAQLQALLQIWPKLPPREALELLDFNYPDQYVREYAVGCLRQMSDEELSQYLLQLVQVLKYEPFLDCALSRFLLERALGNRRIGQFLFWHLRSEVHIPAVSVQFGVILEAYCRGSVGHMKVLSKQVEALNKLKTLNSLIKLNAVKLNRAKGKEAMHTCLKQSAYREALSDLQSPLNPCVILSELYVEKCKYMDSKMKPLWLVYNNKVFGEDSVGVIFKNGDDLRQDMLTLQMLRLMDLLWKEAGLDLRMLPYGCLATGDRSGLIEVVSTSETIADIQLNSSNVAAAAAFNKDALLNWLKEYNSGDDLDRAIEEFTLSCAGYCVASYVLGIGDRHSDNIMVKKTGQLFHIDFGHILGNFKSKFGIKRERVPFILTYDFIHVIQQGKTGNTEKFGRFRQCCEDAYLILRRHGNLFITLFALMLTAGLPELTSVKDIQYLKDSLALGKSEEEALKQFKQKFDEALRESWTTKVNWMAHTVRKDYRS

PIM1 = PIM1 (Homo sapiens, UniProt P11309); conditions: 0.1 µM; binder
Sequence of PIM1 (P11309 whole entry): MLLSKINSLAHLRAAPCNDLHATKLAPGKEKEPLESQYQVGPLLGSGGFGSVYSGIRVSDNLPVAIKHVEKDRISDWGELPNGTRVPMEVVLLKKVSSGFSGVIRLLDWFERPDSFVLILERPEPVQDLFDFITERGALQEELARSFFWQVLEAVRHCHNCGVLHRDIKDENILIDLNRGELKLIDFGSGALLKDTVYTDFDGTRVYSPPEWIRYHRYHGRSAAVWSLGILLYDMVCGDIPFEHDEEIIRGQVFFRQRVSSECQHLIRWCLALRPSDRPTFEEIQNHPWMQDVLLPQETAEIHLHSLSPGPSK

RAF1 = RAF1 (Homo sapiens, UniProt P04049); conditions: 0.1 µM; binder
Sequence of RAF1 (P04049 whole entry): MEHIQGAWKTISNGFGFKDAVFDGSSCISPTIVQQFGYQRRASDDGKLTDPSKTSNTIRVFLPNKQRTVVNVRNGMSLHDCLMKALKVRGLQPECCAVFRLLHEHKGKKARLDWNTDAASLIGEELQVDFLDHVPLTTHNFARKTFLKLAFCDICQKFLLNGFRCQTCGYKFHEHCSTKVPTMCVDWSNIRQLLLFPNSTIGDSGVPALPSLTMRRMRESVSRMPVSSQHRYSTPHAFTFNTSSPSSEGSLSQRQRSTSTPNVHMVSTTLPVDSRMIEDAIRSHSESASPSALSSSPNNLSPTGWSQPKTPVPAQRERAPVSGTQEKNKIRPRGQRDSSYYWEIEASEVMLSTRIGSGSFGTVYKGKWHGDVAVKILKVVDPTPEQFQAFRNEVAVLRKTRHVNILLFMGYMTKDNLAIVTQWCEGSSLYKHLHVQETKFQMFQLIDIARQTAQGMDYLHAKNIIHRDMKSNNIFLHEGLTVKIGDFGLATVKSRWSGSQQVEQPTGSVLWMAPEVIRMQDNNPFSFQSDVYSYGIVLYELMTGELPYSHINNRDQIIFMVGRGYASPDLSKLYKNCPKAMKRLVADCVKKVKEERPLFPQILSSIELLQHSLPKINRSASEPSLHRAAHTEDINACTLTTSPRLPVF

SLK = SLK (Homo sapiens, UniProt Q9H2G2); conditions: 0.1 µM; binder
WNK3 = WNK3 (Homo sapiens, UniProt Q9BYP7); conditions: 0.1 µM; binder

Sequence of CLK2 (P49760 whole entry): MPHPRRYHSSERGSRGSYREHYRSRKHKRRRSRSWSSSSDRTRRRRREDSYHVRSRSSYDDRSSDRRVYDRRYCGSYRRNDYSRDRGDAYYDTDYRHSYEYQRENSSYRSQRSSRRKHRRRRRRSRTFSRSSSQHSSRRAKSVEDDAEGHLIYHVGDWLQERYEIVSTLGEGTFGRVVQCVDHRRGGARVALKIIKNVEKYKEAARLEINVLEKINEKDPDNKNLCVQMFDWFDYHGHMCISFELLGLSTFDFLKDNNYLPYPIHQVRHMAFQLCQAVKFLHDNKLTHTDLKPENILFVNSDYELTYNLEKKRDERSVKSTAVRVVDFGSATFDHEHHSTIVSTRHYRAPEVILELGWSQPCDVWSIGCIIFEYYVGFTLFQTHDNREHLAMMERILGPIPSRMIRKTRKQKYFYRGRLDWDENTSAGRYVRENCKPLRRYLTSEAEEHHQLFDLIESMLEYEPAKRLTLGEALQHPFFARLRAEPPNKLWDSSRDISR

`CNc1ncc2cc(-c3ccc(-c4cccc(C)n4)cc3Cl)c(=O)n(C[C@H]3OC[C@H](N)CO3)c2n1` [compound 6, G-5555] was tested, and the “Percent Control” value (ADCK3) was 100%, the “Percent Control” value (BMPR1B) was 95% and the “Percent Control” value (CASK) was 96%. The “Percent Control” value (CLK2) was 100%, the “Percent Control” value (CSF1R) was 89% and the “Percent Control” value (CSF1R; autoinhibited) was 97%. The “Percent Control” value (CSNK1G2) was 100%, the “Percent Control” value (DAPK2) was 100% and the “Percent Control” value (DCAMKL2) was 100%. The “Percent Control” value (DSTYK) was 90%, the “Percent Control” value (EGFR(G719S)) was 100% and the “Percent Control” value (EGFR(L858R)) was 100%. The “Percent Control” value (EGFR(L861Q)) was 100%, the “Percent Control” value (ERK1) was 100% and the “Percent Control” value (FLT3(K663Q)) was 100%. The “Percent Control” value (HIPK2) was 100%, the “Percent Control” value (KIT(D816V)) was 100% and the “Percent Control” value (LIMK1) was 93%. The “Percent Control” value (LOK) was 37%, the “Percent Control” value (LZK) was 100% and the “Percent Control” value (MAP4K4) was 100%. The “Percent Control” value (MEK3) was 75%, the “Percent Control” value (MKNK2) was 100% and the “Percent Control” value (NEK11) was 100%. The “Percent Control” value (NEK4) was 100%, the “Percent Control” value (PFTAIRE2) was 100% and the “Percent Control” value (PHKG2) was 100%. For the same compound, the “Percent Control” value (PIK3CB) was 100%, the “Percent Control” value (PIM1) was 100% and the “Percent Control” value (RAF1) was 100%. The “Percent Control” value (SLK) was 89% and the “Percent Control” value (WNK3) was 100%.
